Measurements published in patent US11078189B2, “Pharmaceutical compounds” (REVIRAL LIMITED, priority 2017, dated 2021).

Columns and labels:
[1] = biological target: T1, CYP2C8 (Homo sapiens, UniProt P10632); experiment: Cytochrome P450 inhibition CYP2C8; assay type: in vitro ADME; conditions: human liver microsomes
T1 construct: from tissue; host or cells: human liver microsomes
T1 sequence (P10632 1-490): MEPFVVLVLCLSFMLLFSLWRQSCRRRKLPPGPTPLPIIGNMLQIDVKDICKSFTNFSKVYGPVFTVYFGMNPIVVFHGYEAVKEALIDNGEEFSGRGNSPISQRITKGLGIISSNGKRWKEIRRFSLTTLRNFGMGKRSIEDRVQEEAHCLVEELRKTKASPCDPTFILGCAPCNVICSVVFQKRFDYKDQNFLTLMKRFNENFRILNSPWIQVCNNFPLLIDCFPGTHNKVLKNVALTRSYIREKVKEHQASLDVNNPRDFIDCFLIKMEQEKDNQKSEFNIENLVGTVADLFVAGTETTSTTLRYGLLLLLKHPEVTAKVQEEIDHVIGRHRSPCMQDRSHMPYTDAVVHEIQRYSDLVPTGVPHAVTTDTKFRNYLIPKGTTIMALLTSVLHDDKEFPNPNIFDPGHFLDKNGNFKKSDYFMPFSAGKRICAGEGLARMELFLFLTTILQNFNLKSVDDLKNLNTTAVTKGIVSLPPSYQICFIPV
Experimental: (§1) Test compound (0.1, 0.25, 1, 2.5, 10, 25 μM in DMSO; final DMSO concentration 0.3%) was incubated with human liver microsomes (0.25 mg/mL) and NADPH (1 mM) in the presence of a cytochrome P450 isoform-specific probe substrate. The metabolites were monitored by LC-MS/MS and a decrease in the formation of the metabolite compared to the vehicle control used to calculate an IC50 value (test compound concentration which produces 50% inhibition). A cytochrome P450 isoform-specific selective inhibitor was screened alongside the test compounds as a positive control.

[2] = biological target: T2, CYP2C19 (Homo sapiens, UniProt P33261); experiment: Cytochrome P450 inhibition CYP2C19; assay type: in vitro ADME; conditions: human liver microsomes
T2 construct: from tissue; host or cells: human liver microsomes
Experimental: as §1

[3] = biological target: T3, CYP2D6 (Homo sapiens, UniProt P10635); experiment: Cytochrome P450 inhibition CYP2D6; assay type: in vitro ADME; conditions: human liver microsomes
T3 construct: from tissue; host or cells: human liver microsomes
Experimental: as §1

[4] = In vivo pharmacokinetics in the dog; design: species or system Beagle dogs; conditions: Beagle, plasma, 3 mg/kg PO
Experimental: The pharmacokinetics of compounds of the invention were studied in vivo in the dog at doses of 3 mg/kg (PO).
Beagle dogs (n=3) were treated with experimental compounds via oral administration (3 mg/kg). Oral administration was performed by gavage at a dose of 3 mg/kg at a concentration of 0.6 mg/mL in […], 30% PEG 400 & 65% (2-hydroxypropyl)-β-cyclodextrin solution (20% w/v aq.). Serial blood samples were collected at 0.08, 0.25, 0.5, 1, 2, 4, 6, 8, 12 and 24 hours post dosing of compound. […] Serial plasma samples were taken at the defined time points and stored immediately at −80° C.
Following protein precipitation with acetonitrile, samples were analysed with tandem. liquid chromatography/mass spectrometry using electrospray ionisation. A full matrix curve with internal standards was employed and PK parameters were calculated.

T3 sequence (P10635 whole entry): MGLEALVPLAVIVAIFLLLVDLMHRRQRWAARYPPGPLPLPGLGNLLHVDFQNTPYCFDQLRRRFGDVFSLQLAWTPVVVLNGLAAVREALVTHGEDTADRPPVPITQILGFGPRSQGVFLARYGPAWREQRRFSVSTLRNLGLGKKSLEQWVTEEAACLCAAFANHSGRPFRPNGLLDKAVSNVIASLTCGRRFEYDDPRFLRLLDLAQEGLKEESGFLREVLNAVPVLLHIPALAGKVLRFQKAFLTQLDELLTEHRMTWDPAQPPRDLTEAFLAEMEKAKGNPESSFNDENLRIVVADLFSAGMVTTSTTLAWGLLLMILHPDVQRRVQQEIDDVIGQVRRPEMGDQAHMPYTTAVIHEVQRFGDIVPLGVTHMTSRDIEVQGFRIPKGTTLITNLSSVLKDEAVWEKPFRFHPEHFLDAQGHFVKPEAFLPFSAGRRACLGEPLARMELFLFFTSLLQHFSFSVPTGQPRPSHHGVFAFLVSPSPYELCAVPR
T2 sequence (P33261 whole entry): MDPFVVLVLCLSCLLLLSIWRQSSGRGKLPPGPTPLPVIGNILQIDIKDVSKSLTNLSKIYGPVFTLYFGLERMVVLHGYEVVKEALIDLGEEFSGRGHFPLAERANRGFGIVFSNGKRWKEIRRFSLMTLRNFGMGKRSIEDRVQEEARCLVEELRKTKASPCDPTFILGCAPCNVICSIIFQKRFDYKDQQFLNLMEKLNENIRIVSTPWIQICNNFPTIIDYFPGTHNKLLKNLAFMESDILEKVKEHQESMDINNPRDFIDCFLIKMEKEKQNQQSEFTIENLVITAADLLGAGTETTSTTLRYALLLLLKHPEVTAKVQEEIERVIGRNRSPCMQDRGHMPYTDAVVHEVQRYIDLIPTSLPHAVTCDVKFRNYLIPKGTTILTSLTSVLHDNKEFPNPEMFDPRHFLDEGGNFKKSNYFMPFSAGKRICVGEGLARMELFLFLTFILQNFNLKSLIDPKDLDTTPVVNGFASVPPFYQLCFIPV

## CS(=O)(=O)N1CCC(n2c(CN3C(=O)C4(CC4)c4ccc(F)cc43)nc3cc(Cl)ccc32)CC1 [Compound 33, 1′-{[5-Chloro-1-(1-methanesulfonylpiperidin-4-yl)-1H-1,3-benzodiazol-2-yl]methyl}-6′-fluoro-1′,2′-dihydrospiro[cyclopropane-1,3′-indole]-2′-one]
[1]
  IC50: > 25 µM
[2]
  IC50: > 25 µM
[3]
  IC50: > 25 µM
[4]
  AUC: 3870 ng·h/mL
  AUC(0-inf): 4280 ng·h/mL
  AUC(0-t): 3870 ng·h/mL
  Cmax: 535 ng/mL
  Tmax: 0.67 h
  half-life: 7.24 h
